From US20030033638A1, “Production of transgenic plants of the tagetes species” (priority 1999, published 2003) come the findings set out here.

The subject of the experiment is leaves of Tagetes patula plants of genotypes TAG 80 and TAG 81. In words: Determination of phosphinothricin (PPT) toxicity on leaf explants. It counts as cell-based. As to conditions: leaf disks 10-60 mm^2 on MS medium with 2% sucrose, 3 mg/l BAP, 1 mg/l IAA; 2 weeks; both genotypes TAG 80 and TAG 81. On the procedure:
Leaves of Tagetes patula plants of genotypes TAG 80 and TAG 81 (Genbank, IPK Gatersleben) which were established in vitro were cut transversely to the central vein into disks 10-60 mm^2 in size and placed on MS medium supplemented with 2% sucrose, 3 mg/l benzylaminopurine (BAP), 1 mg/l indoleacetic acid (IAA) and different PPT concentrations. Incubation was for 2 weeks in a 16/8 hour light/dark photoperiod at approx. 50 μE/m^2s and at from 21 to 24° C. Then, the number of damaged explants was recorded with reference to the total number of tested explants (FIG. 2). In both Tagetes patula genotypes tested, concentrations starting at 1 mg/l PPT led to the complete destruction of all explants, which is why this concentration was used for the selection after cocultivation.

Structures are written as SMILES.

As to `CP(=O)(O)CC[C@H](N)C(=O)O` [PPT, phosphinothricin], the “PPT concentration leading to the complete destruction of all explants” value was no less than 1 mg/L.
